Test results as given in patent US9513294B2, “Megastokes amino-triazolyl-BODIPY compounds and applications to live neuron staining and human serum albumin FA1 drug site probing” (National University of Singapore, priority 2012, dated 2016).

What was measured:
[1] = Absorbance and fluorescence emission spectra (SpectraMax M2); type: physicochemical; details: for λmax Absorp. (nm) / λmax Emission (nm): MKCA compound library; for λmax Absorp. (nm) / λmax Abs. (nm): absorbance maximum; for λmax Emission (nm) / λmax Em. (nm): fluorescence emission maximum; for λmax Abs. (nm) / λmax Em. (nm): MKAC compound library
Outline: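 Absorbance and emission maxima measured on a SpectraMax M2 spectrophotometer, which also gave quantum yield data; analysis in GraphPrism.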

[2] = Quantum yield measurements versus Acridine Yellow in EtOH; type: physicochemical; details: for φ (%): quantum yield; for φ (quantum yield): excitation 460 nm
Outline: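 Fluorescence quantum yield is relative to Acridine Yellow in EtOH (Φ 0.47), with excitation at 460 nm. Integrated emission at 510–700 nm was corrected for absorbance at the excitation wavelength and for solvent refractive index.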

Compound | λmax Absorp. (nm) [1] [nm] | λmax Emission (nm) [1] [nm] | φ (%) ([2]; MKCA compound library) | λmax Abs. (nm) [1] [nm] | φ (%) ([2]; MKAC compound library) | other results
O=C(CCl)Nc1ccc(C2=C3C=CC(N4CCCCC4)=[N+]3[B-](F)(F)n3c2ccc3-n2cc(COc3ccccc3)nn2)cc1 [BDCCA-17] | – | – | – | – | – | λmax Absorp. ([1]; BDCCA library, Table 4): 464 nm; λmax Emission ([1]; BDCCA library, Table 4): 584 nm; φ (quantum yield) ([2]; BDCCA library, Table 4): 0.7%
CCOc1ccccc1CNC1=[N+]2C(=C(c3ccc(NC(C)=O)cc3)c3ccc(-n4cc(C5CCCC5)nn4)n3[B-]2(F)F)C=C1 [MKAC103-5] | – | – | – | 465 | 18.11 | λmax Em. (nm) [1]: 562 nm
O=C(CCl)Nc1ccc(C2=C3C=CC(N4CCCCC4)=[N+]3[B-](F)(F)n3c2ccc3-n2cc(-c3ccccc3)nn2)cc1 [BDCCA-9] | – | – | – | – | – | λmax Absorp. ([1]; BDCCA library, Table 4): 464 nm; λmax Emission ([1]; BDCCA library, Table 4): 577 nm; φ (quantum yield) ([2]; BDCCA library, Table 4): 1.1%
CC(C)CCc1cn(-c2ccc3n2[B-](F)(F)[N+]2=C(N4CCCCC4)C=CC2=C3c2ccc(N)cc2)nn1 [BDC-36] | – | – | – | – | – | λmax Absorp. ([1]; BDC library, Table 2): 476 nm; λmax Emission ([1]; BDC library, Table 2): 590 nm; φ (quantum yield) ([2]; BDC library, Table 2): 0.11%
COc1ccc(OC)c(CNC2=[N+]3C(=C(c4ccc(NC(C)=O)cc4)c4ccc(-n5cc(C6CC6)nn5)n4[B-]3(F)F)C=C2)c1 [MKAC181-4] | – | – | – | 464 | 15.43 | λmax Em. (nm) [1]: 562 nm
CCCC(C)c1cn(-c2ccc3n2[B-](F)(F)[N+]2=C(N4CCCCC4)C=CC2=C3c2ccc(NC(=O)CCl)cc2)nn1 (racemic) [BDCCA-3] | – | – | – | – | – | λmax Absorp. ([1]; BDCCA library, Table 4): 467 nm; λmax Emission ([1]; BDCCA library, Table 4): 587 nm; φ (quantum yield) ([2]; BDCCA library, Table 4): 0.9%
CC(=O)Nc1ccc(C2=C3C=CC(NCc4ccccc4C)=[N+]3[B-](F)(F)n3c2ccc3-n2cc(CN(C)Cc3ccccc3)nn2)cc1 [MKAC101-18] | – | – | – | 465 | 13.14 | –
COc1ccc(OC)c(CNC2=[N+]3C(=C(c4ccc(NC(C)=O)cc4)c4ccc(-n5cc(C6CCCC6)nn5)n4[B-]3(F)F)C=C2)c1 [MKAC181-5] | – | – | – | 464 | 10.37 | λmax Em. (nm) [1]: 563 nm

Continued, in another order:

λmax Absorp. (nm) [1] [nm] | λmax Emission (nm) [1] [nm] | φ (%) ([2]; MKCA compound library) | λmax Abs. (nm) [1] [nm] | φ (%) ([2]; MKAC compound library) | Compound | other results
463 | 564 | 2.66 | – | – | O=C(CCl)Nc1ccc(C2=C3C=CC(N4CCCC4)=[N+]3[B-](F)(F)n3c2ccc3-n2cc(CC3CCCCC3)nn2)cc1 [MKCA215-8] | –
– | – | – | 462 | 3.41 | CC(=O)Nc1ccc(C2=C3C=CC(N4CCCC4)=[N+]3[B-](F)(F)n3c2ccc3-n2cc(CCc3ccccc3)nn2)cc1 [MKAC215-19] | λmax Em. (nm) [1]: 567 nm
462 | 569 | 3.42 | – | – | CCCCCC(O)c1cn(-c2ccc3n2[B-](F)(F)[N+]2=C(N4CCCC4)C=CC2=C3c2ccc(NC(=O)CCl)cc2)nn1 (centres unmarked) [MKCA215-69] | –
465 | 558 | 14.25 | – | – | CCCCCC(O)c1cn(-c2ccc3n2[B-](F)(F)[N+]2=C(NCc4cc(OC)ccc4OC)C=CC2=C3c2ccc(NC(=O)CCl)cc2)nn1 (centres unmarked) [MKCA181-69] | –
466 | 585 | 2.54 | – | – | CC1CN(C2=[N+]3C(=C(c4ccc(NC(=O)CCl)cc4)c4ccc(-n5cc(CN(C)Cc6ccccc6)nn5)n4[B-]3(F)F)C=C2)CC(C)O1 (centres unmarked) [MKCA20-18] | –
465 | 562 | 33.49 | – | – | CCCCCC(O)c1cn(-c2ccc3n2[B-](F)(F)[N+]2=C(NCc4ccccc4OCC)C=CC2=C3c2ccc(NC(=O)CCl)cc2)nn1 (centres unmarked) [MKCA103-69] | –
469 | 584 | 3.18 | – | – | CCCc1cn(-c2ccc3n2[B-](F)(F)[N+]2=C(N4CCc5ccccc5C4)C=CC2=C3c2ccc(NC(=O)CCl)cc2)nn1 [MKCA66-48] | –
465 | 563 | 20.00 | – | – | CCCc1cn(-c2ccc3n2[B-](F)(F)[N+]2=C(NCc4cc(OC)ccc4OC)C=CC2=C3c2ccc(NC(=O)CCl)cc2)nn1 [MKCA181-48] | –
